{
  "source": "patent US9198892B2",
  "about": "“Composition and/or method for preventing onset and/or recurrence of cardiovascular events” (MOCHIDA PHARMACEUTICAL CO., LTD., priority 2005, dated 2015)",
  "key": {"[1]": {"test": "Five-year large scale randomized unblinded controlled trial of EPA-E: onset of cardiovascular events", "assay_type": "in vivo, human", "settings": "five years; for incidence rate of the cardiovascular events / Cases with the cardiovascular events/all cases: EPA-E group", "procedure": "(§1) The observation was conducted by a large scale randomized unblinded controlled trial of the EPA-E group (9,326 cases) and the control group (9,319 cases). The patients were randomized into the groups at the beginning of the trial so that no significant difference is found between the groups in the background factors of the patients, namely, age, sex ratio, history and complication, type and proportion of the HMG-CoA RI, serum lipid concentration, and the like. The patients of both groups were under nutritional counseling, and HMG-CoA RI was administered to them as a base drug.\nThe data was collected from […] participant patients by about 4,900 participant physicians in about 2,900 participant facilities with sufficient case number, randomization, and the strictness required for the controlled trial. For example, in choosing the participant patients, the serum T-Cho concentration was measured twice at an interval of two to four weeks except for the cases where the patients underwent an adequate nutritional consulting with high compliance and the cases where the fasting blood was collected after cessation of the antilipidemic drug, in which the measurement was conducted only once. While untreated patients were preferable, in the case of patients who had been taking an antilipidemic drug for more than six months at the start of the trial, four weeks of drug holidays (eight weeks in the case of probucol) were given. Patients who were administered with the antilipidemic drug for six months or less at the start of the trial were admitted in the trial with no drug holiday, and when the drug was HMG-CoA RI, its administration was continued while other drugs were changed to HMG-CoA RI.\nIn order to exclude cardiovascular events in the unstable period after the onset of myocardial infarction and cardiovascular events such as restenosis in the unstable period which is conceived to be caused by the angioplasty itself, the patients at or within six months after the acute myocardial infarction and patients at or within six months after the cardiovascular angioplasty were excluded from the trial subjects, and only patients who are beyond six months after such events and who are conceived to be in the stable period were included in the trial. In addition, patients who are inadequate for the examination of the action of preventing the onset of cardiovascular events for a long time which is the object of this trial, for example, patients of unstable angina pectoris, patients with history or complication of serious heart diseases (such as severe arrhythmia, heart failure, cardiomyopathy, valvular disease, and congenital heart disease), patients at or within six months from the onset of cerebrovascular disorder, and patients with complication of serious liver disease or kidney disease, as well as the patients whose participation was judged to be inappropriate by the attending physician were excluded from the trial.\n(§2) Epadel (Mochida Pharmaceutical Co., Ltd.) was orally administered as EPA-E typically at an adult dose of 600 mg after the meal three times a day. In the case of abnormal serum TG, however, the dose could be increased to 900 mg per administration and three times a day.\n(§3) Pravastatin sodium (Mevalotin tablets and fine granules, Sankyo Co., Ltd.), simvastatin (Lipovas tablets, Banyu Pharmaceutical Co., Ltd.), or atorvastatin calcium hydrate (Lipitor tablets, Astellas Pharma Inc. and Pfizer) was used for the HMG-CoA RI, and these drugs were orally administered according to the predetermined dosage regimen.\nFor five years from before the start of the trial to the end of the trial, the concentration of the serum lipid (T-Cho, HDL-Cho, and TG) was periodically measured, and LDL-Cho was calculated by the equation of T-Cho-HDL-Cho-(TG/5). […]"}, "[2]": {"settings": "oral 600 mg three times a day immediately after meals (up to 900 mg when serum TG is abnormal); cited from earlier work"}, "[3]": {"test": "Serum lipid concentration in the five-year EPA-E trial", "assay_type": "in vivo, human", "procedure": "as §1, §2, §3\nFor five years from before the start of the trial to the end of the trial, the concentration of the serum lipid (T-Cho, HDL-Cho, and TG) was periodically measured, and LDL-Cho was calculated by the equation of T-Cho-HDL-Cho-(TG/5). In addition, onset of cardiovascular events (cardiovascular death (fatal myocardial infarction and sudden cardiac death), nonfatal myocardial infarction, cardiovascular angioplasty, new onset of rest angina or effort angina, and destabilization of angina pectoris (hospitalization and cardiovascular angioplasty)) was observed."}, "[4]": {"settings": "two-year administration after PTCA; cited from earlier work"}, "[5]": {"settings": "oral, cited from earlier work"}, "[6]": {"settings": "Cardiovascular angioplasty history: No"}, "[7]": {"settings": "Cardiovascular angioplasty history: Yes"}, "[8]": {"settings": "Myocardial Infarction history: No"}, "[9]": {"settings": "Myocardial Infarction history: Yes"}, "[10]": {"settings": "EPA-E group with HMG-CoA RI, five years"}},
  "data": [
    {"smiles": "CC/C=C\\C/C=C\\C/C=C\\C/C=C\\C/C=C\\CCCC(=O)OCC", "note": "[EPA-E, ethyl icosapentate]", "values": [
      {"measurement": "Odds ratio (incidence rate of the EPA-E group)/(incidence rate of the control group)", "setting": "[1]; All Cases", "result": 0.808},
      {"measurement": "Odds ratio (EPA-E group/control group)", "setting": "[1]; [6]", "result": 0.862},
      {"measurement": "Odds ratio (EPA-E group/control group)", "setting": "[1]; [7]", "result": 0.671},
      {"measurement": "incidence rate of the cardiovascular events", "setting": "[1]; [6]", "result": "(2.10) %"},
      {"measurement": "Cases with the cardiovascular events/all cases", "setting": "[1]; [7]", "result": "77/533"},
      {"measurement": "incidence rate of the cardiovascular events", "setting": "[1]; [7]", "result": "(14.45) %"},
      {"measurement": "incidence rate of the cardiovascular events", "setting": "[1]; [8]", "result": "(2.05) %"},
      {"measurement": "Cases with the cardiovascular events/all cases", "setting": "[1]; [9]", "result": "82/548"},
      {"measurement": "incidence rate of the cardiovascular events", "setting": "[1]; [9]", "result": "(14.96) %"},
      {"measurement": "Odds ratio (EPA-E group/control group)", "setting": "[1]; [8]", "result": 0.811},
      {"measurement": "Odds ratio (EPA-E group/control group)", "setting": "[1]; [9]", "result": 0.744},
      {"measurement": "reduction of the incidence rate of the cardiovascular events compared to the control group", "setting": "[1]; all cases", "result": "about 19%"},
      {"measurement": "decrease of the incidence rate of the cardiovascular events compared to the control group", "setting": "[1]; patients with history of cardiovascular angioplasty", "result": "about 33%"},
      {"measurement": "decrease of the incidence rate of the cardiovascular events compared to the control group", "setting": "[1]; patients with history of myocardial infarction", "result": "about 26%"},
      {"measurement": "serum T-Cho concentration reduced", "setting": "[2]", "result": "3-6%"},
      {"measurement": "serum HDL-Cho concentration", "setting": "[3]; [10]", "result": "no significant change"},
      {"measurement": "serum TG concentration", "setting": "[3]; [10]", "result": "decreased"},
      {"measurement": "serum LDL-Cho concentration", "setting": "[3]; EPA-E group with HMG-CoA RI, five years, LDL-Cho calculated", "result": "decreased"},
      {"measurement": "serum T-Cho concentration", "setting": "[3]; EPA-E group with HMG-CoA RI, observation period of five years", "result": "decreased"},
      {"measurement": "decrease in the serum TG concentration, EPA-E group versus control group", "setting": "[3]; five years", "result": "more significant"}
    ]},
    {"smiles": "CC[C@H](C)C(=O)O[C@H]1C[C@H](O)C=C2C=C[C@H](C)[C@H](CC[C@@H](O)C[C@@H](O)CC(=O)O)[C@H]21", "note": "[pravastatin sodium]", "values": [
      {"measurement": "restenosis rate", "setting": "[4]", "result": "reduced the restenosis rate"},
      {"measurement": "serum HDL-Cho concentration increased", "setting": "[5]; average 4.9 years", "result": 5, "unit": "%"},
      {"measurement": "serum LDL-Cho concentration decreased", "setting": "[5]; average 4.9 years", "result": 26, "unit": "%"},
      {"measurement": "serum TG decreased", "setting": "[5]; average 4.9 years", "result": 12, "unit": "%"},
      {"measurement": "total incidence rate of nonfatal myocardial infarction and cardiovascular death decreased", "setting": "[5]; average 4.9 years", "result": 31, "unit": "%"},
      {"measurement": "serum T-Cho concentration decreased", "setting": "[5]; average period of 4.9 years, male hyperlipidemia patients with no history of myocardial infarction", "result": 20, "unit": "%"}
    ]}
  ]
}
